In ChEMBL document CHEMBL3244367, “Synthesis and determination of antiviral activity of the 2'(3')-O-methyl derivatives of ribavirin (1-beta-D-ribofuranosyl-1,2,4-triazole-3-carboxamide)” (1977):
Converted amounts (≈) assume the structure as drawn.

system: Vaccinia virus; assay: Antiviral activity against Vaccinia virus infected in primary rabbit kidney cells assessed as inhibition of virus-induced cytopathogenicity treated immediately after virus adsorption measured 2 days after virus infection; type: functional; conditions: Orthopoxvirus vaccinia, 48 h

SMILES	MIC50
CO[C@H]1[C@@H](O)[C@H](n2cnc(C(N)=O)n2)O[C@@H]1CO	> 200 µg/mL
NC(=O)c1ncn([C@@H]2O[C@H](CO)[C@@H](O)[C@H]2O)n1 [RIBAVIRIN]	20 µg/mL (≈ 81.9 µM)
CO[C@@H]1[C@H](O)[C@@H](CO)O[C@H]1n1cnc(C(N)=O)n1	> 200 µg/mL
